Like-named read-outs stand apart in the source and are kept apart here.
Experiments:
[1] = system: Trypanosoma brucei rhodesiense (Tbr), STIB 900 strain; test: In vitro activity against Trypanosoma brucei rhodesiense (bloodstream trypomastigotes, STIB 900 strain); type: cell-based
Description: (§1) In vitro biological activity against Trypanosoma brucei rhodesiense (bloodstream trypomastigotes, STIB 900 strain), Plasmodium falciparum (intraerythrocytic form, NF54 strain) and cytotoxicity assay against rat skeletal myoblasts (L6 cell line) were carried out at the Swiss Tropical and Public Health Institute (Swiss TPH, Allschwil, Switzerland) in accordance with the established standard procedures, in exactly the same manner and with the same cell lines as described recently.

[2] = system: Plasmodium falciparum (Pf), NF54 strain; test: In vitro activity against Plasmodium falciparum (intraerythrocytic form, NF54 strain); type: cell-based; settings: for IC50: Plasmodium falciparum
Description: as §1

[3] = Cytotoxicity assay against rat skeletal myoblasts (L6 cell line); type: cell-based
Description: as §1

[4] = system: Plasmodium falciparum (Pf), NF54 strain; set-up: method as in PMID 40076324; settings: separately tested in a recent study; cited from earlier work
[5] = system: Trypanosoma brucei rhodesiense (Tbr), STIB 900 strain; set-up: method as in PMID 40076324; settings: separately tested in a recent study; cited from earlier work
[6] = Trypanosoma brucei rhodesiense, mean of two separate IC50 determinations ± absolute deviation, compounds tested as bis- or mono-trifluoroacetates, read-out: Tbr IC50
[7] = NF54, mean of two separate IC50 determinations ± absolute deviation, compounds tested as bis- or mono-trifluoroacetates, read-out: Pf IC50

Row | SMILES | IC50 [1, 6] | IC50 [2, 7] | other results
1 | CN[C@H]1[C@H](O)C[C@]23C[C@]24CC[C@]2(C)[C@@H]([C@H](C)N(C)C)CC[C@@]2(C)[C@@H]4CC[C@H]3C1(C)C [Compound 1, cycloprotobuxoline-C] | 6.7 ± 3.3 µM | 28 ± 0.7 µM | IC50 [3]: > 100 µM
2 | CN[C@H]1[C@H](O)C[C@]23C[C@]24CC[C@]2(C)[C@@H]([C@H](C)N(C)C)CC[C@@]2(C)[C@@H]4CC[C@H]3[C@]1(C)COC(=O)c1cc(OC)c(OC)c(OC)c1 [Compound 5, 29-trimethoxybenzoyloxy cycloprotobuxoline-C] | 1.6 ± 0.7 µM | 0.5 µM | IC50 ([2]; NF54, isolated compounds, tested as trifluoroacetate salts, molar IC50 calculated with mass of the salt, read-out: IC50 against Pf (antiplasmodial activity)): < 1 µM
3 | CN[C@@H](C)[C@H]1CC[C@@]2(C)[C@@H]3C=C[C@H]4C(C)(C)[C@@H](N(C)C)CC[C@@]45C[C@@]35CC[C@]12C [Compound 12, deoxycyclovirobuxeine-B] | 0.8 ± 0.3 µM | 5.4 ± 1.2 µM | IC50 ([1]; Trypanosoma brucei, isolated compounds, tested as trifluoroacetate salts, molar IC50 calculated with mass of the salt, read-out: IC50 against Tbr (antitrypanosomal activity)): < 1 µM
4 | CN[C@@H](C)[C@H]1CC[C@@]2(C)[C@@H]3CC[C@H]4[C@]5(C)COCN(C)[C@H]5CC[C@@]45C[C@@]35CC[C@]12C [Compound 15, N20-demethyl deoxycyclobuxoxazine-A] | 6.6 ± 3.5 µM | 5.8 ± 0.4 µM | –
5 | CN[C@H]1CC[C@]23C[C@]24CC[C@]2(C)[C@@H](C(C)=O)[C@H](OC)C[C@@]2(C)[C@@H]4CC[C@H]3C1 [Compound 16, obtusibuxeine-A] | 22 ± 1.7 µM | 13 ± 1.4 µM | SI Tbr (selectivity index) ([1]; cytotoxic IC50 (L6) / IC50 Tbr): 2; SI Pf (selectivity index) ([2]; cytotoxic IC50 (L6) / IC50 Pf): 3; IC50 [3]: 45 ± 5.1 µM
6 | CC(=O)OC1C2OC3(C=CC(NC(=O)c4ccccc4)C(C)(C)C13)CC1=CCC3(C)C(C(C)N(C)C)C(O)CC3(C)C12 (stereo not drawn) [Compound 21, obtusiepoxamine-A] | 2.2 ± 0.2 µM | 10 ± 1.1 µM | –
7 | CC(=O)O[C@H]1[C@@H](O)[C@@H]2C(=CC[C@]3(C)[C@@H]([C@H](C)N(C)C)CC[C@@]23C)CC2=CC[C@H](NC(=O)c3ccccc3)C(C)(C)[C@@H]21 [Compound 23, 16-deoxyobtusidienolamine-A] | 6.5 ± 0.4 µM | 30 ± 6.5 µM | –
8 | CCN(CC)CCCC(C)Nc1ccnc2cc(Cl)ccc12 (stereo not drawn) [chloroquine, reference compound] | – | – | IC50 ([2]; NF54, read-out: IC50 Pf): 2 ng/mL; IC50 ([2]; NF54, read-out: Pf IC50): 0.012 µM
9 | Nc1nc(N)nc(Nc2ccc([As]3SCC(CO)S3)cc2)n1 (stereo not drawn) [melarsoprol, reference compound] | – | – | IC50 ([1]; Trypanosoma brucei, read-out: IC50 Tbr): 4 ng/mL; IC50 ([1]; Trypanosoma brucei, read-out: Tbr IC50): 0.013 ± 0.001 µM
10 | COc1cc([C@@H]2c3cc4c(cc3[C@H](O)[C@H]3COC(=O)[C@H]23)OCO4)cc(OC)c1OC [podophyllotoxin, reference compound] | – | – | IC50 ([3]; Table 1, crude extracts and acid-base fractions, mean of two determinations ± absolute deviation, read-out: IC50 Cytotox. L6): 7 ± 2 ng/mL
11 | O=C([O-])C(F)(F)F.[Na+] [sodium trifluoroacetate] | – | – | activity against the target parasites (Pf) [4]: inactive; activity against the target parasites (Tbr) [5]: inactive

Source: paper PMC12693156, “Antiprotozoal Aminosteroid Alkaloids from Buxus obtusifolia (Mildbr.) Hutch” (Molecules, 2025)
